The numbers were not newly measured in publication PMC5364125 (EJNMMI Research, 2017), which cites them from elsewhere.

The structures appear in SMILES notation.

On the set-up of series [1]: method as in PMID 25616581. The conditions noted are these: cited from earlier work.
Series [2] concerns TSPO. To be noted: human subjects; cited from earlier work.
On the set-up of series [3]: method as in PMID 27329083. To be noted: cited from earlier work.
Details of series [4]: method as in PMID 27329083. To be noted: rats; cited from earlier work.
Series [5] relates to TSPO. The conditions noted are these: cited from earlier work.

On to `CC[C@@H](C)N(C)C(=O)c1cc2ccccc2c(-c2ccccc2Cl)n1` [(R)-PK11195, reference compound], for which, in series [1], the log partition coefficient (logP) is reported as 2.54.

Regarding `CC[C@@H](C)N([11CH3])C(=O)c1cc2ccccc2c(-c2ccccc2Cl)n1` [(R)-[^11C]PK11195], in series [2], the “V T caudate” value was 0.3 ± 0.1, the “V T cerebellum” value is 0.3 ± 0.1, the “V T frontal cortex” value is given as 0.3 ± 0.1 and the “V T parietal cortex” value is 0.4 ± 0.1. Moreover, in series [2], the “V T putamen” value was 0.3 ± 0.1 and the “V T thalamus” value is given as 0.4 ± 0.1.

For `CCCN(CCC)C(=O)Cc1c(-c2ccc(OC)cc2)nc2c(Cl)cc(Cl)cn12` [CB184], in series [3], the mutagenicity entry is listed as “absence of mutagenicity”. Besides, the “abnormalities in the acute toxicity test” value in series [4] is on record as “absence of any abnormalities”. For the same compound, the “relative TSPO binding affinity to (R)-PK11195” value (shortened to “relative TSPO binding affinity”) in series [5] is 7.9 fold. Also, the Ki in series [5] (read-out: K i, affinity for TSPO) was 0.54 nM. For the same compound, the logP in series [1] is reported as 2.06.

In the case of `CCN(CC)C(=O)Cc1c(-c2ccc(OC)cc2)nn2c(C)cc(C)nc12` [DPA-713], the “relative TSPO binding affinity” value in series [5] is 2 fold.

With `CCN(CC)C(=O)Cc1c(-c2ccc(OCCF)cc2)nn2c(C)cc(C)nc12` [DPA-714], the “relative TSPO binding affinity” value in series [5] is 1.3 fold.

For the compound `COc1ccccc1CN(C(C)=O)c1cnccc1Oc1ccccc1` [PBR28], the “relative TSPO binding affinity” value in series [5] is reported as 2–5 folds.

For the compound `CCN(CC)C(=O)Cc1c(-c2ccc(O[11CH3])cc2)nn2c(C)cc(C)nc12` [[^11C]DPA-713], in series [2], the “V T caudate” value is on record as 3.1 ± 0.6, the “V T cerebellum” value was 3.9 ± 0.9, the “V T frontal cortex” value was 4.1 ± 0.8 and the “V T parietal cortex” value is given as 3.7 ± 0.7. Besides, in series [2], the “V T putamen” value is recorded as 3.5 ± 0.6 and the “V T thalamus” value was 4.7 ± 0.9.
